Experimental data from patent US20230219886A1, “NOVEL SELENO-NSAID ANALOGS AND USES THEREOF” (THE PENN STATE RESEARCH FOUNDATION, priority 2020, published 2023).
Where two headings read alike, the source gives them in different places.

Key:
HT-29 (CRC) = assay: MTT cell viability assay, HT-29; details: for CC50: read-out: LC50; for viability at 5 µM / viability at 25 µM / viability at 50 µM: read-out: cell viability
Experimental: (§1) Cell Culture Conditions. The cell lines were obtained from the American Type Culture Collection (ATCC). PANC-1 and Caco-2 cell lines were maintained in DMEM medium (Gibco); HT-29, HCT-116 and RKO cells were maintained in McCoy's 5A medium (Gibco); and DU-145 and H1299 cells were maintained in RPMI 1640 medium (Gibco), supplemented with 10% fetal bovine serum (FBS; Gibco) and 1% antibiotics (10.00 units/mL penicillin and 10.00 mg/mL streptomycin; Gibco). Cells were preserved in tissue culture flasks at 37° C. and 5% CO2. Culture medium was replaced every three days.
(§2) Cell Viability Assay. The effect of each compound on cell viability was tested using the MTT assay (81). Briefly, 9000 cells/well were grown in 96-well plates for 12 h. Then these cells were incubated with either DMSO (control) or nine different concentration between 0.01-50 μM of the test compounds for 24, 48, and 72 h. Three hours before the termination point, 20 μL of MTT were added to measure cellular viability. The resultant formazan crystals were dissolved in 50 μL of DMSO, and absorbance was measured at 570 nm and 630 nm wavelengths. IC50, GI50, TGI and LC50 values were calculated using OriginPro 8.5.1.
(§3) Evaluation of the antiproliferative activities of the novel molecules. […] These four cell lines were treated with each compound at three concentrations (5, 25 and 50 μM) for 48 h.

BT-549 (breast) = assay: NCI-60 one-dose screen, BT-549; type: cell-based, human; details: BT-549, 10 μM, 48 h
Source text: (§4) NCI-60 Analysis. 1a and 6a were submitted to National Cancer Institute's (NCI) Developmental Therapeutics Program (DTP) where the cytotoxicity profile was investigated across their 60 human cancer cell line panel according to the protocol available on multiple sources (71-73, 83). The COMPARE algorithm (73), was utilized to evaluate the activity profile of 6a in comparison to those of known cytotoxins established in marketed drugs and standard agent data sets in order to correlate plausible modes of action.
(§5) NCI-60 analysis. Compounds 1a, 5a and 6a were submitted to the National Cancer Institute's (NCI) Developmental Therapeutics Program (DTP). NCI-60 program consists in a panel of 60 human cancer cell lines from a variety of cancers, including refractory tumors such as lung, ovarian, CRC, breast, brain and renal cancers, and melanomas together with more treatable cancers such as leukemias (71). 1a [NSC: 803071], 5a [NSC: 820332] and 6a [NSC: 811013] were initially screened at one dose (10 μM) at 48 h. Then, NCI selected only compound 6a to perform dose-response characterization (72).

NCI-60 cell lines = assay: NCI-60 one-dose screen, mean of all cell lines; type: cell-based, human; details: 10 μM, 48 h
Source text: as §4, §5

DU-145 (prostate) = assay: NCI-60 one-dose screen, DU-145; type: cell-based, human; details: DU-145, 10 μM, 48 h
Source text: as §4, §5

[1] = tested on: DU-145 (prostate carcinoma); assay: MTT cell viability assay, DU-145; details: Homo sapiens, DU-145, 48 h, read-out: cell viability
Experimental: as §1, §2, §3

SK-MEL-28 (melanoma) = assay: NCI-60 one-dose screen, SK-MEL-28; type: cell-based, human; details: SK-MEL-28, 10 μM, 48 h
Source text: as §4, §5

[2] = tested on: PANC-1 (pancreatic carcinoma); assay: MTT cell viability assay, Panc-1; details: Homo sapiens, PANC-1, 48 h, read-out: cell viability
Experimental: as §1, §2, §3

TK-10 (renal) = assay: NCI-60 one-dose screen, TK-10; type: cell-based, human; details: TK-10, 10 μM, 48 h
Source text: as §4, §5

HCT-116 CRC cells = assay: MTT cell viability assay, HCT-116; type: cell-based, human; details: Homo sapiens, read-out: IC50
Experimental: as §1, §2

[3] = tested on: human CRC cells (HT-29, HCT-116, RKO and CACO-2); assay: MTT assay, panel of four CRC cells; type: cell-based; details: 4 CRC cells
Experimental: Cell Culture Conditions. […] Culture medium was replaced every three days.
Evaluation of the antiproliferative activity of methylseleno-NSAIDs, MSA and NSAIDs alone or in combination. […] CRC cells were treated for 24, 48 and 72 h at different concentrations to stablish the dose-response curves.

RKO CRC cells = assay: cells; details: Homo sapiens
Experimental: as §1, §2

CACO-2 CRC cells = assay: cells; details: Homo sapiens
Experimental: as §1, §2

H1299 (lung carcinoma) = assay: MTT cell viability assay, H1299; details: Homo sapiens, NCI-H1299, 48 h, read-out: cell viability
Experimental: as §1, §2, §3

Structure (SMILES): COc1ccc2c(c1)c(CC(=O)[Se]C)c(C)n2C(=O)c1ccc(Cl)cc1 [Compound 5a, Se-methyl 2-(1-(4-chlorobenzoyl)-5-methoxy-2-methyl-1H-indol-3-yl)ethane-selenoate]
- increase on cytotoxic potency compared with parent NSAID scaffolds (HT-29 (CRC)): three-fold
- TGI (HT-29 (CRC); HT-29, 24 h): >50 µM
- TGI (HT-29 (CRC); HT-29, 48 h): 0.6 ± 0.5 µM
- TGI (HT-29 (CRC); HT-29, 72 h): 5.1 ± 2.2 µM
- GI50 (HT-29 (CRC); Homo sapiens, HT-29, 24 h): 4.9 ± 2.2 µM
- IC50 (HT-29 (CRC); Homo sapiens, HT-29, 24 h): > 50 µM
- CC50 (HT-29 (CRC); Homo sapiens, HT-29, 24 h): > 50 µM
- GI50 (HT-29 (CRC); Homo sapiens, HT-29, 48 h): 3.2 ± 1.9 µM
- IC50 (HT-29 (CRC); Homo sapiens, HT-29, 48 h): 3.3 ± 0.9 µM
- CC50 (HT-29 (CRC); Homo sapiens, HT-29, 48 h): > 50 µM
- viability at 5 µM (HT-29 (CRC); Homo sapiens, HT-29, 48 h): 26.3 ± 2.9%
- viability at 25 µM (HT-29 (CRC); Homo sapiens, HT-29, 48 h): 17.9 ± 3.7%
- viability at 50 µM (HT-29 (CRC); Homo sapiens, HT-29, 48 h): 18 ± 3.5%
- GI50 (HT-29 (CRC); Homo sapiens, HT-29, 72 h): 2.9 ± 0.8 µM
- IC50 (HT-29 (CRC); Homo sapiens, HT-29, 72 h): 3.3 ± 0.3 µM
- CC50 (HT-29 (CRC); Homo sapiens, HT-29, 72 h): > 50 µM
- cytotoxicity at 5 µM (HT-29 (CRC); Homo sapiens, HT-29, read-out: inhibition in cell viability): 75 to 80%
- GP (BT-549 (breast)): −80.79%
- GP mean value towards all cell lines (NCI-60 cell lines): 4.01%
- GP (DU-145 (prostate)): −7.90%
- viability at 5 µM [1]: 52.1 ± 1.5%
- viability at 25 µM [1]: 34.5 ± 3%
- viability at 50 µM [1]: 27.4 ± 1.7%
- GP (SK-MEL-28 (melanoma)): −7.85%
- viability at 5 µM [2]: 61.9 ± 4.4%
- viability at 25 µM [2]: 66.6 ± 1.9%
- viability at 50 µM [2]: 60.2 ± 5.5%
- GP (TK-10 (renal)): −58.40%
- IC50 (HCT-116 CRC cells; HCT-116, 24 h): > 50 µM
- IC50 (HCT-116 CRC cells; HCT-116, 48 h): 5.6 ± 2.6 µM
- IC50 (HCT-116 CRC cells; HCT-116, 72 h): 18.7 ± 4.9 µM
- anti-tumoral activity versus MSA and NSAIDs as single agents or combined [3]: higher anti-tumoral activity
- IC50 (RKO CRC cells; 24 h): > 50 µM
- IC50 (RKO CRC cells; 48 h): 10.1 ± 6.9 µM
- IC50 (RKO CRC cells; 72 h): 11.6 ± 5.9 µM
- IC50 (CACO-2 CRC cells; Caco-2, 24 h): > 50 µM
- IC50 (CACO-2 CRC cells; Caco-2, 48 h): 4.2 ± 1.7 µM
- IC50 (CACO-2 CRC cells; Caco-2, 72 h): 5.5 ± 1.1 µM
- viability at 5 µM (H1299 (lung carcinoma)): 49.5 ± 9.4%
- viability at 25 µM (H1299 (lung carcinoma)): 37 ± 5.6%
- viability at 50 µM (H1299 (lung carcinoma)): 32.4 ± 5.8%

Structure (SMILES): COc1ccc2c(c1)c(CC(=O)O)c(C)n2C(=O)c1ccc(Cl)cc1 [Inn, indomethacin, reference compound]
- TGI (HT-29 (CRC); HT-29, 24 h): >50 µM
- TGI (HT-29 (CRC); HT-29, 48 h): >50 µM
- TGI (HT-29 (CRC); HT-29, 72 h): >50 µM
- GI50 (HT-29 (CRC); Homo sapiens, HT-29, 24 h): > 50 µM
- IC50 (HT-29 (CRC); Homo sapiens, HT-29, 24 h): > 50 µM
- GI50 (HT-29 (CRC); Homo sapiens, HT-29, 48 h): > 50 µM
- IC50 (HT-29 (CRC); Homo sapiens, HT-29, 48 h): > 50 µM
- viability at 5 µM (HT-29 (CRC); Homo sapiens, HT-29, 48 h): 100 ± 8.4%
- viability at 25 µM (HT-29 (CRC); Homo sapiens, HT-29, 48 h): 99.8 ± 14.2%
- viability at 50 µM (HT-29 (CRC); Homo sapiens, HT-29, 48 h): 98.3 ± 13.4%
- GI50 (HT-29 (CRC); Homo sapiens, HT-29, 72 h): > 50 µM
- IC50 (HT-29 (CRC); Homo sapiens, HT-29, 72 h): > 50 µM
- viability at 5 µM [1]: 89.6 ± 12.3%
- viability at 25 µM [1]: 97.6 ± 21%
- viability at 50 µM [1]: 96.2 ± 18.5%
- viability at 5 µM [2]: 94.1 ± 8.3%
- viability at 25 µM [2]: 85.9 ± 10.5%
- viability at 50 µM [2]: 83.2 ± 6.3%
- IC50 (HCT-116 CRC cells; HCT-116, 24 h): > 50 µM
- IC50 (HCT-116 CRC cells; HCT-116, 48 h): > 50 µM
- IC50 (HCT-116 CRC cells; HCT-116, 72 h): > 50 µM
- IC50 (RKO CRC cells; 24 h): > 50 µM
- IC50 (RKO CRC cells; 48 h): > 50 µM
- IC50 (RKO CRC cells; 72 h): > 50 µM
- IC50 (CACO-2 CRC cells; Caco-2, 24 h): > 50 µM
- IC50 (CACO-2 CRC cells; Caco-2, 48 h): > 50 µM
- IC50 (CACO-2 CRC cells; Caco-2, 72 h): > 50 µM
- viability at 5 µM (H1299 (lung carcinoma)): 76 ± 23.7%
- viability at 25 µM (H1299 (lung carcinoma)): 70.4 ± 19.8%
- viability at 50 µM (H1299 (lung carcinoma)): 66.2 ± 14%

Structure (SMILES): CC1=C(CC(=O)O)c2cc(F)ccc2/C1=C\c1ccc([S+](C)[O-])cc1 (centres unmarked) [Sulin, sulindac, reference compound]
- TGI (HT-29 (CRC); HT-29, 24 h): >50 µM
- TGI (HT-29 (CRC); HT-29, 48 h): >50 µM
- TGI (HT-29 (CRC); HT-29, 72 h): >50 µM
- GI50 (HT-29 (CRC); Homo sapiens, HT-29, 24 h): > 50 µM
- IC50 (HT-29 (CRC); Homo sapiens, HT-29, 24 h): > 50 µM
- GI50 (HT-29 (CRC); Homo sapiens, HT-29, 48 h): > 50 µM
- IC50 (HT-29 (CRC); Homo sapiens, HT-29, 48 h): > 50 µM
- viability at 5 µM (HT-29 (CRC); Homo sapiens, HT-29, 48 h): 99.1 ± 2.4%
- viability at 25 µM (HT-29 (CRC); Homo sapiens, HT-29, 48 h): 97.3 ± 2.1%
- viability at 50 µM (HT-29 (CRC); Homo sapiens, HT-29, 48 h): 98.6 ± 3.1%
- GI50 (HT-29 (CRC); Homo sapiens, HT-29, 72 h): > 50 µM
- IC50 (HT-29 (CRC); Homo sapiens, HT-29, 72 h): > 50 µM
- viability at 5 µM [1]: 82.2 ± 1.9%
- viability at 25 µM [1]: 83.2 ± 7.2%
- viability at 50 µM [1]: 85.5 ± 3.7%
- viability at 5 µM [2]: 88 ± 22.5%
- viability at 25 µM [2]: 90.6 ± 28.9%
- viability at 50 µM [2]: 84.5 ± 32.7%
- IC50 (HCT-116 CRC cells; HCT-116, 24 h): > 50 µM
- IC50 (HCT-116 CRC cells; HCT-116, 48 h): > 50 µM
- IC50 (HCT-116 CRC cells; HCT-116, 72 h): > 50 µM
- IC50 (RKO CRC cells; 24 h): > 50 µM
- IC50 (RKO CRC cells; 48 h): > 50 µM
- IC50 (RKO CRC cells; 72 h): > 50 µM
- IC50 (CACO-2 CRC cells; Caco-2, 24 h): > 50 µM
- IC50 (CACO-2 CRC cells; Caco-2, 48 h): > 50 µM
- IC50 (CACO-2 CRC cells; Caco-2, 72 h): > 50 µM
- viability at 5 µM (H1299 (lung carcinoma)): 87.5 ± 2.5%
- viability at 25 µM (H1299 (lung carcinoma)): 72.5 ± 2.7%
- viability at 50 µM (H1299 (lung carcinoma)): 84.9 ± 12.1%
